Measurements as given in paper PMC11847841, “The development and evaluation of a tublysine-based antibody-drug conjugate with enhanced tumor therapeutic efficacy” (Frontiers in Pharmacology, 2025).
Read-outs that look alike come from different tables or passages of the source.

How the values were obtained:
[1] = cited from earlier work; for Cmax of free payload: ref Poon et al., 2013
[2] = exceeds total body water content in rats; ref Pharmaceuticals and Medical Devices Agency, 2013; cited from earlier work
[3] = system: BT-474 human breast cancer xenografts; experiment: BT-474 xenograft efficacy study; type: in vivo, BALB/c nude mice; conditions: BT-474 model, administered alone
tumor cells = experiment: In vitro cytotoxicity of Tub114 and Tub114-cys; type: cell-based; conditions: at the same concentration as the corresponding ADC; Supplementary Figure S2
Method: EC50 values were calculated using the built-in software.

[4] = Single-dose pharmacokinetic study in cynomolgus monkey
[5] = system: HER2-positive BT-474 cells; experiment: In vitro endocytosis into BT-474 cells; type: cell-based, human
Method: (§1) BT-474 and SK-BR-3 cells were cultured to the exponential growth phase, harvested, and washed with pre-cooled PBS. […] Alexa Fluor 488-conjugated goat anti-human IgG (H + L) secondary antibody (10 μg/mL; Invitrogen, Shanghai, China) was subsequently added, and the cells were incubated on ice for 30 min. After additional washes, the cells were resuspended in pre-cooled PBS, divided into five aliquots, and incubated at 37°C for 0, 10, 30, 90, or 120 min. At each time point, cells were further split into two sub-aliquots: one treated with Trypan Blue to quench extracellular fluorescence and the other with PBS as an unquenched control. Fluorescence intensity was measured using a flow cytometer (Guava, Merck Millipore). The percentage of endocytosis was calculated as the ratio of quenched to unquenched fluorescence multiplied by 100%.

[6] = system: HER2-positive SK-BR-3 cells; experiment: In vitro endocytosis into SK-BR-3 cells; type: cell-based, human
Method: as §1

[7] = system: HER2-negative cell line MDA-MB-468; experiment: In vitro inhibition of proliferation of HER2-negative cells (EZMTT); type: cell-based, human; conditions: at high concentrations
[8] = Tub114-cys alone 1 mg/kg single administration
[9] = free Tub114-cys in plasma after DX126-262 3 mg/kg single i.v.
[10] = free Tub114-cys in plasma after DX126-262 10 mg/kg single i.v.
[11] = free Tub114-cys in plasma after DX126-262 30 mg/kg single i.v.

Molecule: COc1cc2cc(c1Cl)N(C)C(=O)C[C@H](OC(=O)[C@H](C)N(C)C(=O)CCS)[C@]1(C)O[C@H]1[C@H](C)[C@@H]1C[C@@](O)(NC(=O)O1)[C@H](OC)/C=C/C=C(\C)C2 [DM1]
- Cmax of free payload ([1]; DM1 after 3 mg/kg Kadcyla): 8.0 nM
- Cmax of free payload ([1]; DM1 after 10 mg/kg Kadcyla): 28.2 nM
- Cmax of free payload ([1]; DM1 after 30 mg/kg Kadcyla): 90.2 nM
- Vss [2]: > 0.668 L/kg

Molecule: CC[C@@]1(O)C(=O)OCc2c1cc1n(c2=O)Cc2c-1nc1cc(F)c(C)c3c1c2[C@@H](NC(=O)CO)CC3 [Dxd]
- Vss ([1]; Dxd 1 mg/kg, ref Nagai et al., 2019): 0.832 L/kg

Molecule: CCC(C)C(NC(=O)C(C)(C)N(C)C)C(=O)N(C)C(CC(OC(C)=O)c1nc(C(=O)NC(Cc2ccc(O)c(NC(=O)CCCNC(=O)C(CCCCNC(=O)COCCOCCOCCOCCOCCOCCOCCOCCOCCOC)NC(=O)CCCN3C(=O)CC(SCC(N)C(=O)O)C3=O)c2)CC(C)C(=O)O)cs1)C(C)C (centres unmarked) [Tub114-cys]
- Antitumor effect [3]: no antitumor effect
- Killing of tumor cells by free payload (tumor cells): neither Tub114 nor Tub114-cys could kill tumor cells at the same concentration as the corresponding ADC
- Cmax of free payload ([4]; Tub114-cys after 3 mg/kg DX126-262): 5.5 nM
- Cmax of free payload ([4]; Tub114-cys after 10 mg/kg DX126-262): 14.6 nM
- Cmax of free payload ([4]; Tub114-cys after 30 mg/kg DX126-262): 31.7 nM
- AUCinf [4, 8]: 4,501.5 ± 657.9 ng•hr/mL
- CL [4, 8]: 3.772 ± 0.578 mL/min/kg
- Cmax [4, 8]: 4,155.8 ± 464.2 ng/mL
- T1/2 [4, 8]: 1.2 ± 0.2 h
- Vss [4, 8]: 0.2538 ± 0.0307 L/kg
- AUC inf [4, 9]: 519.2 ± 381.9 ng·h/mL
- Cmax [4, 9]: 9.5 ± 1.1 ng/mL
- T1/2 [4, 9]: 51.4 ± 47.1 h
- AUC inf [4, 10]: 966.4 ± 115.4 ng·h/mL
- Cmax [4, 10]: 25.0 ± 5.2 ng/mL
- T1/2 [4, 10]: 26.6 ± 6.6 h
- AUC inf [4, 11]: 2,505.7 ± 419.6 ng•hr/mL
- Cmax [4, 11]: 54.3 ± 5.7 ng/mL
- T1/2 [4, 11]: 28.1 ± 2.7 h

Molecule: ado-trastuzumab emtansine [Kadcyla]
- Endocytosis Efficiency ([5]; BT-474, incubation time 0 min): 10.8%
- Endocytosis Efficiency ([5]; BT-474, incubation time 10 min): 27.3%
- Endocytosis Efficiency ([5]; BT-474, incubation time 30 min): 34.2%
- Endocytosis Efficiency ([5]; BT-474, incubation time 90 min): 38.6%
- Endocytosis Efficiency ([5]; BT-474, incubation time 120 min): 43.8%
- Endocytosis Efficiency ([6]; SK-BR-3, incubation time 0 min): 9.3%
- Endocytosis Efficiency ([6]; SK-BR-3, incubation time 10 min): 11.8%
- Endocytosis Efficiency ([6]; SK-BR-3, incubation time 30 min): 17.4%
- Endocytosis Efficiency ([6]; SK-BR-3, incubation time 90 min): 31.6%
- Endocytosis Efficiency ([6]; SK-BR-3, incubation time 120 min): 33.4%
- Toxicity to HER2-negative cell line MDA-MB-468 [7]: some inhibitory effects
